Assay results published in ChEMBL document CHEMBL1139701, “A bioisosteric approach to the discovery of indole carbinol androgen receptor ligands” (Bioorg Med Chem Lett, 2006).
pIC50: −log10 of the molar value.

Target: T1, Androgen receptor (Rattus norvegicus) (UniProt P15207)
T1 sequence (whole entry): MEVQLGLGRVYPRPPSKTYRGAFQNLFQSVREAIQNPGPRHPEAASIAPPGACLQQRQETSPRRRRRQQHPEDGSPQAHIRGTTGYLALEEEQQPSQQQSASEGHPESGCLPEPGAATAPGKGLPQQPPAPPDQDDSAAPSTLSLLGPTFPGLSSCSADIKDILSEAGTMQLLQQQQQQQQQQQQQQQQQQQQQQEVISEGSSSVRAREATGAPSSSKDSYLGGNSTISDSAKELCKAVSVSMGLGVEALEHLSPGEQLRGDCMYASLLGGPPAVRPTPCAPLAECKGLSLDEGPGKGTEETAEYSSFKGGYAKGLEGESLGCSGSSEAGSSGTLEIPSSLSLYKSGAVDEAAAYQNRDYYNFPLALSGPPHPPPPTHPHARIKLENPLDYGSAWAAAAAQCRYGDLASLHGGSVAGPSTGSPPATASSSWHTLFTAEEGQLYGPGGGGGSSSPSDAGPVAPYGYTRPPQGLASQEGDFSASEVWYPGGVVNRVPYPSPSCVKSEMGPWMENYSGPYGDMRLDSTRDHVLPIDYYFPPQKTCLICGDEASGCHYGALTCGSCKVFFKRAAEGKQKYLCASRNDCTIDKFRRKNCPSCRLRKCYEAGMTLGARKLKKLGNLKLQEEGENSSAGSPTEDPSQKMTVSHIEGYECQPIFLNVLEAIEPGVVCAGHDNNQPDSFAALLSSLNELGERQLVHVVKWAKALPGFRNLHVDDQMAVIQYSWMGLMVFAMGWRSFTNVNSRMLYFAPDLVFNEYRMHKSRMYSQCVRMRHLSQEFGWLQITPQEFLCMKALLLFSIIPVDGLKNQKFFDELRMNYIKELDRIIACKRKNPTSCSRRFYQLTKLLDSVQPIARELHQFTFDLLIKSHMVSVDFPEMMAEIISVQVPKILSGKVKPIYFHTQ
Experiment: Displacement of [3H]R1881 from rat androgen receptor at 30 uM relative to control

**Q.** For `COC(=O)c1ccc2[nH]c(C(C)(O)CSc3ccc(Cl)cc3)cc2c1` (centres undefined), which inhibition is on record?
**A.** The inhibition was under 50%.

**Q.** With `CC(O)(CSc1ccc(Cl)cc1)c1cc2ccccc2[nH]1` (centres undefined) as the molecule, how does the inhibition read?
**A.** The inhibition was under 50%.

Target: T2, Androgen receptor (Rattus norvegicus, UniProt P15207)
T2 sequence (P15207 whole entry): T1 sequence (whole entry)
Experiment: Displacement of [3H]R1881 from rat androgen receptor

**Q.** `CC(O)(COC(=O)c1ccc([N+](=O)[O-])cc1)c1cc2cc([N+](=O)[O-])c(C(F)(F)F)cc2[nH]1` (centres undefined) was tested. Which pIC50 did it give?
**A.** The pIC50 was 5.80.

**Q.** `Cc1ccc(C(=O)OCC(C)(O)c2cc3cc([N+](=O)[O-])c(C(F)(F)F)cc3[nH]2)cc1` (centres undefined) was tested. Which pIC50 did it give?
**A.** The pIC50 was 5.52.

**Q.** With `CC(O)(COC(=O)c1ccc(F)cc1)c1cc2cc(C#N)c(C(F)(F)F)cc2[nH]1` (centres undefined) as the molecule, how does the pIC50 read?
**A.** Its pIC50 is 5.92.

**Q.** How did the pIC50 turn out when `CC(O)(CSc1ccc(Cl)cc1)c1cc2cc(Cl)c(C(F)(F)F)cc2[nH]1` (centres undefined) was run?
**A.** Its pIC50 is 6.74.

**Q.** With `CC(O)(COC(=O)c1ccccc1C(F)(F)F)c1cc2cc(NC(=O)C(F)(F)F)c(C(F)(F)F)cc2[nH]1` (centres undefined) as the molecule, how does the pIC50 read?
**A.** The pIC50 was 6.82.

**Q.** `CC(O)(CSc1ccccc1)c1cc2cc(Cl)c(C(F)(F)F)cc2[nH]1` (centres undefined) was tested. Which pIC50 did it give?
**A.** The pIC50 was 6.66.

**Q.** `CN(C)c1ccc(C(=O)OCC(C)(O)c2cc3cc([N+](=O)[O-])c(C(F)(F)F)cc3[nH]2)cc1` (centres undefined) was tested. Which pIC50 did it give?
**A.** Its pIC50 is 5.59.

**Q.** `CC(O)(COC(=O)c1ccccc1)c1cc2cc(C#N)c(C(F)(F)F)cc2[nH]1` (centres undefined) was tested. Which pIC50 did it give?
**A.** The pIC50 was 6.32.

**Q.** `CC(C)(C)c1ccc(C(=O)OCC(C)(O)c2cc3cc([N+](=O)[O-])c(C(F)(F)F)cc3[nH]2)cc1` (centres undefined) was tested. Which pIC50 did it give?
**A.** Its pIC50 is 5.44.

**Q.** With `CC(O)(CSc1ccc(Cl)c(Cl)c1)c1cc2cc([N+](=O)[O-])c(C(F)(F)F)cc2[nH]1` (centres undefined) as the molecule, how does the pIC50 read?
**A.** Its pIC50 is 6.00.

**Q.** `COc1ccc(C(=O)OCC(C)(O)c2cc3cc([N+](=O)[O-])c(C(F)(F)F)cc3[nH]2)cc1` (centres undefined) was tested. Which pIC50 did it give?
**A.** Its pIC50 is 5.19.

**Q.** With `CC(O)(CS(=O)(=O)c1ccc(F)cc1)c1cc2cc(C#N)c(C(F)(F)F)cc2[nH]1` (centres undefined) as the molecule, how does the pIC50 read?
**A.** The pIC50 was under 5.16.
